These results are taken from US20180002288A1, “USE OF PICOLINAMIDES AS FUNGICIDES” (DOW AGROSCIENCES LLC, priority 2014, published 2018).

Format in all cases: in vivo
Test [1] concerns Puccinia triticina. Briefly: Wheat Brown Rust fungicidal activity (PUCCRT). To be noted: Low Volume Cereal Activity at 121.5 g/Ha.
In test [2] the test system is Venturia inaequalis. Put plainly: Apple Scab fungicidal activity (VENTIN). The following applies: 24 h, high volume, 1 Day Protectant, read-out: VENTIN % Control rating. The procedure:
All fungicides were evaluated using the aforementioned method for their activity vs. all target diseases, unless stated otherwise. Wheat leaf blotch and brown rust activity were also evaluated using track spray applications, in which case the fungicides were formulated as EC formulations, containing 0.1% Trycol 5941 in the spray solutions. Wheat plants (variety Yuma) were grown from seed in a greenhouse in 50% mineral soil/50% soil-less Metro mix until the first leaf was fully emerged, with 7-10 seedlings per pot. These plants were inoculated with an aqueous spore suspension of Zymoseptoria tritici either prior to or after fungicide treatments. After inoculation the plants were kept in 100% relative humidity (one day in a dark dew chamber followed by two to three days in a lighted dew chamber at 20° C.) to permit spores to germinate and infect the leaf. The plants were then transferred to a greenhouse set at 20° C. for disease to develop. When disease symptoms were fully expressed on the 1st leaves of untreated plants, infection levels were assessed on a scale of 0 to 100 percent disease severity. Percent disease control was calculated using the ratio of disease severity on treated plants relative to untreated plants. […] Seedlings with two expanding young leaves at the top (older leaves at bottom of the plants were trimmed) were used in the test. Plants were inoculated with a spore suspension of Venturia inaequalis 24 hr after fungicide treatment and kept in a 22° C. dew chamber with 100% relative humidity for 48 hr, and then moved to a greenhouse set at 20° C. for disease to develop. Fungicide formulation, application and disease assessment on the sprayed leaves followed the procedures as described in the Example A.

The test system of test [3] is Cercospora beticola. Briefly: Leaf Spot of Sugar Beets fungicidal activity (CERCBE). The following applies: 24 h, sugar beet, high volume, 1 Day Protectant, read-out: CERCBE % Control rating. As for the experimental part:
All fungicides were evaluated using the aforementioned method for their activity vs. all target diseases, unless stated otherwise. Wheat leaf blotch and brown rust activity were also evaluated using track spray applications, in which case the fungicides were formulated as EC formulations, containing 0.1% Trycol 5941 in the spray solutions. Wheat plants (variety Yuma) were grown from seed in a greenhouse in 50% mineral soil/50% soil-less Metro mix until the first leaf was fully emerged, with 7-10 seedlings per pot. These plants were inoculated with an aqueous spore suspension of Zymoseptoria tritici either prior to or after fungicide treatments. After inoculation the plants were kept in 100% relative humidity (one day in a dark dew chamber followed by two to three days in a lighted dew chamber at 20° C.) to permit spores to germinate and infect the leaf. The plants were then transferred to a greenhouse set at 20° C. for disease to develop. When disease symptoms were fully expressed on the 1st leaves of untreated plants, infection levels were assessed on a scale of 0 to 100 percent disease severity. Percent disease control was calculated using the ratio of disease severity on treated plants relative to untreated plants. Sugar beet plants (variety HH88) were grown in soil-less Metro mix and trimmed regularly to maintain a uniform plant size prior to test. Plants were inoculated with a spore suspension 24 hr after fungicide treatments. Inoculated plants were kept in a dew chamber at 22° C. for 48 hr then incubated in a greenhouse set at 24° C. under a clear plastic hood with bottom ventilation until disease symptoms were fully expressed. Fungicide formulation, application and disease assessment on the sprayed leaves followed the procedures as described in the Example A.

In test [4] the test system is Alternaria solani. Put plainly: Tomato Early Blight fungicidal activity (ALTESO). The following applies: 24 h, high volume, 1 Day Protectant, read-out: ALTESO % Control rating. As for the experimental part:
All fungicides were evaluated using the aforementioned method for their activity vs. all target diseases, unless stated otherwise. Wheat leaf blotch and brown rust activity were also evaluated using track spray applications, in which case the fungicides were formulated as EC formulations, containing 0.1% Trycol 5941 in the spray solutions. Wheat plants (variety Yuma) were grown from seed in a greenhouse in 50% mineral soil/50% soil-less Metro mix until the first leaf was fully emerged, with 7-10 seedlings per pot. These plants were inoculated with an aqueous spore suspension of Zymoseptoria tritici either prior to or after fungicide treatments. After inoculation the plants were kept in 100% relative humidity (one day in a dark dew chamber followed by two to three days in a lighted dew chamber at 20° C.) to permit spores to germinate and infect the leaf. The plants were then transferred to a greenhouse set at 20° C. for disease to develop. When disease symptoms were fully expressed on the 1st leaves of untreated plants, infection levels were assessed on a scale of 0 to 100 percent disease severity. Percent disease control was calculated using the ratio of disease severity on treated plants relative to untreated plants. Tomato plants (variety Outdoor Girl) were propagated in soil-less Metro mix, with each pot having one plant, and used when 12 to 14 days old. Test plants were inoculated with an aqueous spore suspension of Alternaria solani 24 hr after fungicide treatments. After inoculation the plants were kept in a dew room at 22° C. with 100% relative humidity for 48 hr to permit spores to germinate and infect the leaf. The plants were then transferred to a growth room at 22° C. for disease to develop. Fungicide formulation, application and disease assessment on the sprayed leaves followed the procedures as described in the Example A.

[5] abbreviates: 24 h, 1 Day Protectant, read-out: PUCCRT 1DP (Wheat Brown Rust, 1 Day Protectant).
Setting [6] is: 72 h, 3 Day Curative, read-out: PUCCRT 3DC (Wheat Brown Rust, 3 Day Curative).

Read-outs that look alike come from different tables or passages of the source. Bounds are passed on as bounds.

With `COc1ccnc(C(=O)N[C@@H](C)C(=O)O[C@@H](C)[C@H](Oc2ccccc2)c2ccccc2)c1OCOC(C)=O` [Example 183], the pest or weed control at 121.5 g/ha in test [1] (setting [5]) and in test [1] (setting [6]) was more than 80% throughout. In addition, the pest or weed control at 100 ppm in test [2] was less than 80%; in test [3], more than 80%; in test [4], less than 80%.

Consider `COc1ccnc(C(=O)N[C@@H](C)C(=O)O[C@@H](C)[C@H](Oc2cccc(F)c2)c2ccccc2)c1OCOC(C)=O` [Example 187], for which the pest or weed control at 121.5 g/ha in test [1] (setting [5]) and in test [1] (setting [6]) was more than 80% in each case. The values for the pest or weed control at 100 ppm in test [3] and in test [4] were more than 80% and less than 80%, respectively.

As for `COc1ccnc(C(=O)N[C@@H](C)C(=O)O[C@@H](C)[C@H](Oc2cccc(Cl)c2)c2ccccc2)c1OCOC(C)=O` [Example 202], the pest or weed control at 121.5 g/ha in test [1] (setting [5]) was more than 80%; in test [1] (setting [6]), less than 80%. The results for the pest or weed control at 100 ppm in test [3] and in test [4] were less than 80% and less than 0%, respectively.

Consider `COc1ccnc(C(=O)N[C@@H](C)C(=O)O[C@@H](C)[C@H](Oc2ccccc2Cl)c2ccccc2)c1OC(C)=O` [Example 205], for which the pest or weed control at 121.5 g/ha in test [1] (setting [5]) and in test [1] (setting [6]) was more than 80% in each case. The pest or weed control at 100 ppm in test [3] was more than 80%; in test [4] it was less than 80%.

Regarding `COc1ccnc(C(=O)N[C@@H](C)C(=O)O[C@@H](C)[C@H](Oc2cc(F)cc(Cl)c2)c2ccccc2)c1OC(C)=O` [Example 207], the pest or weed control at 121.5 g/ha in test [1] (setting [5]) is more than 80%; in test [1] (setting [6]), less than 80%. Further, the pest or weed control at 100 ppm in test [2] was more than 80%; in test [3], more than 80%; in test [4], less than 0%.

Regarding `COc1ccnc(C(=O)N[C@@H](C)C(=O)O[C@@H](C)[C@H](Oc2ccc(F)cc2)c2ccccc2)c1OC(C)=O` [Example 235], the pest or weed control at 121.5 g/ha in test [1] (setting [5]) and in test [1] (setting [6]) was more than 80% each time. For the same compound, the values for the pest or weed control at 100 ppm in test [2], in test [3] and in test [4] were less than 80%, more than 80% and less than 80%, respectively.

With `COc1ccnc(C(=O)N[C@@H](C)C(=O)O[C@@H](C)C(Oc2ccc(F)cc2)c2ccccc2)c1OC(C)=O` (stereo partly drawn) [Example 236], the pest or weed control at 121.5 g/ha in test [1] (setting [5]) and in test [1] (setting [6]) was more than 80% each time. Also, the pest or weed control at 100 ppm was more than 80% in test [2], more than 80% in test [3] and less than 80% in test [4].

Take `COc1ccnc(C(=O)N[C@@H](C)C(=O)O[C@@H](C)[C@H](Oc2ccc(F)cc2)c2ccccc2)c1OCOC(C)=O` [Example 237]: the pest or weed control at 121.5 g/ha in test [1] (setting [5]) and in test [1] (setting [6]) was more than 80% throughout. Moreover, the pest or weed control at 100 ppm in test [2] was less than 80%; in test [3], more than 80%; in test [4] it was less than 80%.

In the case of `COc1ccnc(C(=O)N[C@@H](C)C(=O)O[C@@H](C)C(Oc2ccc(F)cc2)c2ccc(F)cc2)c1OCOC(C)=O` (stereo partly drawn) [Example 238], the pest or weed control at 121.5 g/ha in test [1] (setting [5]) and in test [1] (setting [6]) was more than 80% in each case. For the same compound, the pest or weed control at 100 ppm in test [2], in test [3] and in test [4] was more than 80% throughout.

With `COc1ccnc(C(=O)N[C@@H](C)C(=O)O[C@@H](C)[C@H](Oc2ccccc2)c2ccc(F)cc2F)c1OCOC(C)=O` [Example 250], the pest or weed control at 121.5 g/ha in test [1] (setting [5]) and in test [1] (setting [6]) was more than 80% throughout. Further, the pest or weed control at 100 ppm in test [3] is less than 80%; in test [4] it was less than 0%.

Turning to `COc1ccnc(C(=O)N[C@@H](C)C(=O)O[C@@H](C)[C@H](Oc2ccccc2)c2ccc(C)cc2)c1OCOC(C)=O` [Example 252], the pest or weed control at 121.5 g/ha in test [1] (setting [5]) and in test [1] (setting [6]) was more than 80% in each case. Moreover, the values for the pest or weed control at 100 ppm in test [2], in test [3] and in test [4] were less than 80%, more than 80% and less than 0%, respectively.

On to `COc1ccccc1[C@@H](Oc1ccccc1)[C@H](C)OC(=O)[C@H](C)NC(=O)c1nccc(OC)c1OCOC(C)=O` [Example 255], for which the pest or weed control at 121.5 g/ha in test [1] (setting [5]) and in test [1] (setting [6]) was more than 80% throughout. Besides, the pest or weed control at 100 ppm in test [2] is less than 80%; in test [3] it was more than 80%; in test [4] it was less than 0%.

As for `COc1cc(F)ccc1[C@@H](Oc1ccccc1)[C@H](C)OC(=O)[C@H](C)NC(=O)c1nccc(OC)c1OCOC(C)=O` [Example 256], the pest or weed control at 121.5 g/ha in test [1] (setting [5]) and in test [1] (setting [6]) was more than 80% throughout. The values for the pest or weed control at 100 ppm in test [3] and in test [4] were more than 80% and less than 80%, respectively.

In the case of `COc1ccnc(C(=O)N[C@@H](C)C(=O)O[C@@H](C)[C@H](Oc2ccccc2)c2ccc(F)cc2C)c1OCOC(C)=O` [Example 259], the pest or weed control at 121.5 g/ha in test [1] (setting [5]) and in test [1] (setting [6]) was more than 80% throughout. Also, the pest or weed control at 100 ppm in test [2] is less than 80%; in test [3], more than 80%; in test [4], less than 0%.

With `COc1ccnc(C(=O)N[C@@H](C)C(=O)O[C@@H](C)[C@H](Oc2ccccc2)c2ccc(F)cc2Cl)c1OCOC(C)=O` [Example 260], the pest or weed control at 121.5 g/ha in test [1] (setting [5]) and in test [1] (setting [6]) was more than 80% throughout. Further, the pest or weed control at 100 ppm is less than 80% in test [2], more than 80% in test [3] and less than 0% in test [4].

With `COc1ccnc(C(=O)N[C@@H](C)C(=O)O[C@@H](C)[C@H](Oc2ccccc2)c2ccc3ccccc3c2)c1OCOC(C)=O` [Example 263], the pest or weed control at 121.5 g/ha in test [1] (setting [5]) and in test [1] (setting [6]) was more than 80% each time. The pest or weed control at 100 ppm in test [2] is less than 80%; in test [3] it was more than 80%; in test [4], less than 0%.
